{"source": "patent US20190369107A1", "about": "“ZWITTERIONIC NANOPARTICLES” (priority 2017, published 2019)", "system": "A549 cells", "assay": "Toxicity tests of QDQRs on A549 cells (Cellomics Array Scan, Hoechst 33342 / MitoTracker Deep Red)", "assay_type": "cell-based, human", "conditions": "16 h incubation", "protocol": "The culture medium consisted of 10% FCS in DMEM with 1% PenStrep and sodium pyruvate in each case. The incubation of the cells always took place at 37° C. and a CO2 content of 5%.\nThe zwitterionic Quantum Dots/Quantum Rods (QDQRs) nanoparticles were examined in various in vitro experiments with regard to their toxicity and non-specific cell uptake. Yellow-emitting QDQRs comprising the short- and long-chain zwitterionic ligand (QDQRs-17a and QDQRs-17b) were used for the studies to investigate a possible influence of the chain length of the ligand on the interactions of the QDQRs with cells. A549 cells were used for both toxicity and cell uptake studies. A549 cells are human basal epithelial cells derived from an adenocarcinoma of the lung which have been cultured as a cell line.\nThe toxicity of the zwitterionic QDQRs-17a and QDQRs-17b was tested using the Cellomics Array Scan. For the toxicity tests, A549 cells were plated on a 96-well plate and incubated with QDQR solutions in a concentration range of 25 to 500 nM. Cadmium chloride, which was used in a concentration range from 25 to 1,000 μM, was used as the positive control. The increase in the cadmium chloride concentration by a factor of 1,000 is due to the fact that a single QDQR of the tested samples contains about 8,200 cadmium atoms. Assuming that the totality of the nanoparticles dissolve and release the cadmium contained in them, the lowest concentration of 25 nM QDQRs used would correspond to a concentration of 205 μM cadmium chloride. After an incubation period of 16 hours, the cells were blended with a staining solution consisting of the cell nucleus dye Hoechst 33342 and the mitochondrial dye MitoTracker® Deep Red FM and then fixed with formaldehyde solution. The 96-well plates were then read out with the Cellomics Array Scan. A software was used to automatically determine the parameters number of cells, cell nucleus intensity and cell nucleus size using the intensity of the dye by Hoechst, and the transmembrane potential of the mitochondria on the basis of the mitochondrial dye. In addition, microscopic images of the cells were taken to control the number of cells and cell morphology.\nFor the toxicity tests, A549 cells were plated in culture medium on a 96-well plate (10,000 cells per well) and incubated overnight. When the medium had been sucked off, the samples to be tested (diluted with culture medium, 100 μL per well) were applied in different concentrations and incubated for 16 hours. The samples were then removed and the cells were mixed with 100 μL staining solution (final concentration: 75 nM MitoTracker® Deep Red and 2.5 μg/ml Hoechst 33342 in DMEM with 10% FCS) and incubated for a further 30 minutes. To fix the cells, the staining solution was removed and 100 μL of a warm fixing solution (3.7% formaldehyde in Dulbecco's PBS, DPBS) were added. After 20 minutes, the fixing solution was sucked off and washed twice with DPBS before the samples were measured on the Cellomics Array Scan.", "note": "“Also recorded” adds a separate entry of the source.", "data": [{"compound": "[Cl][Cd][Cl]", "note": "[cadmium chloride]", "values": [{"measurement": "morphological changes of the cells or cell nuclei in microscopic images", "setting": "cadmium chloride at 100 μM or more", "result": "get globular"}, {"measurement": "number of cells per well", "setting": "over the tested concentration range, FIG. 1 A", "result": "decreases significantly; also recorded: decreases noticeably"}, {"measurement": "cell nucleus intensity (Hoechst 33342)", "setting": "over the tested concentration range, FIG. 1 B", "result": "decreases significantly"}, {"measurement": "cell nucleus size", "setting": "over the tested concentration range, FIG. 1 C", "result": "decreases significantly"}, {"measurement": "transmembrane potential of the mitochondria", "setting": "over the tested concentration range, FIG. 1 D", "result": "first increases in the concentration range from 50 to 100 μM and then decreases again"}, {"measurement": "concentration at which a toxic effect on the cells is shown", "setting": "positive control tested 25 to 1,000 μM", "result": "≥ 100", "unit": "µM"}]}]}
